The values below are quoted from earlier work in article PMC5749684, “Tetrahydrocarbazoles are a novel class of potent P-type ATPase inhibitors with antifungal activity” (PLoS ONE, 2018).

The subject of this series is Na^+,K^+-ATPase. On the set-up: method as in PMID 19289472. Particulars: cited from earlier work.

For the compound `CC(=O)C1=C(O)[C@@H]2[C@H]3c4c[nH]c5cccc(c45)C[C@H]3C(C)(C)N2C1=O` [CPA, cyclopiazonic acid], the “Activity against Na^+,K^+-ATPase (in words)” value was “inactivity”.
